In paper PMC5064002, “Sintokamide A Is a Novel Antagonist of Androgen Receptor That Uniquely Binds Activation Function-1 in Its Amino-terminal Domain” (The Journal of Biological Chemistry, 2016):
pIC50: −log10 of the molar value. Read-outs that look alike come from different tables or passages of the source.

Experiments:
Tau5 = system: Tau5; set-up: method as in PMID 27356095; conditions: contact to residues 353–364, 397–407 and 433–466; cited from earlier work
endogenous FL-AR = target: T1, endogenous FL-AR (Homo sapiens, UniProt P10275, T878A); assay: Binding assay of click chemistry probes to full-length AR in LNCaP cells; conditions: 20 μM LPY probes or 25 μM EPI-053, click chemistry, Western blot
T1 construct: endogenous in cells; host or cells: LNCaP
T1 sequence (P10275 1-920 T878A): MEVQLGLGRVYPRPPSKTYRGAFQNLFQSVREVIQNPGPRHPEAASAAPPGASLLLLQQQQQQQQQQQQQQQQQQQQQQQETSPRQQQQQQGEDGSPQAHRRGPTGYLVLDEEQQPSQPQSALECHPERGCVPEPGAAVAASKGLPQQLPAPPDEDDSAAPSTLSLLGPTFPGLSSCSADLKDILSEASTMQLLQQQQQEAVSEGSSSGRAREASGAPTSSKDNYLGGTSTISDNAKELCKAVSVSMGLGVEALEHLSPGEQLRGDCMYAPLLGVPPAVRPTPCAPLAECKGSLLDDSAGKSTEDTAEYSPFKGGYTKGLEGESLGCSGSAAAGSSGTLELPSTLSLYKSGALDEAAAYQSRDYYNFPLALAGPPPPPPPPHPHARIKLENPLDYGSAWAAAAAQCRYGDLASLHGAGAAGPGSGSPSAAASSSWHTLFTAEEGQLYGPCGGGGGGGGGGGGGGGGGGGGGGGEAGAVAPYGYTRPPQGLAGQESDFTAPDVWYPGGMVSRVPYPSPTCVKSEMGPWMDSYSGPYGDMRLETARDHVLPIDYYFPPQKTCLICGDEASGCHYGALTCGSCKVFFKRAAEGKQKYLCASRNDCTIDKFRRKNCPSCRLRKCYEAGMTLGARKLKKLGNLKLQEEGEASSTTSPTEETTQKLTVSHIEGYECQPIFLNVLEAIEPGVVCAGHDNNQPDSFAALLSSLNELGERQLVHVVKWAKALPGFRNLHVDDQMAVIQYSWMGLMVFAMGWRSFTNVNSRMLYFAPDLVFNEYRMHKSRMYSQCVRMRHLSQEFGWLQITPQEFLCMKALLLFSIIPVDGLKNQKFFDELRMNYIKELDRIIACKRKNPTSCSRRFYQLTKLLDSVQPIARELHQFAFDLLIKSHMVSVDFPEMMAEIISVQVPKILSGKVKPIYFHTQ
Protocol: LNCaP cells were treated for 24 h with 20 μM modified SINT1 (LPY19, -30, and -31) or the vehicle dimethyl sulfoxide (DMSO). 25 μM EPI-053 (a modified EPI-001 analog) was used as positive control ([5]). Proteins were extracted with lysis buffer and subjected to click chemistry conditions for 3 h at 25 °C in buffer containing 0.1% SDS, 5% t-butyl alcohol, 100 μM tris[(1-benzyl-1H-1,2,3-triazol-4-yl)methyl]amine (Sigma), 1 mM tris(2-carboxyethyl)phosphine, 100 μM biotin-azide reagent, and 1 mM CuSO4. Samples were dialyzed in 50 mM HEPES, pH 8.0, 150 mM NaCl, 0.1% SDS, and 1% Triton X-100 to remove excess biotin-azide reagent. Biotinylated soluble receptors were captured with streptavidin-agarose resin. Protein-SINT1 complexes were separated by 10% SDS-PAGE and subjected to Western blotting analysis using AR-N20 (1:1000) and biotin (1:1000) antibodies. Proteins were visualized using ECL detection reagent (Amersham Biosciences).
To reveal whether SINT1 binds to endogenous AR, LNCaP cells were incubated with modified SINT1 click chemistry probes (LPY19, LPY30, and LPY31 shown in Fig. 2A). The EPI-002 click chemistry probe EPI-053 was used as a positive control ([5]). […] LNCaP cells were incubated overnight with these probes prior to click chemistry to add biotin to each click chemistry probe (see schema in Fig. 2B, right). Cell lysates were used for immunoprecipitation with streptavidin to isolate those proteins bound to biotinylated probes. Immunocomplexes were split with one aliquot used for Western blotting analysis using an antibody to biotin (Fig. 2B, left) and the other aliquot for Western blotting analysis using an antibody to AR (Fig. 2B, middle). […] Consistent with these biotin bands corresponding to AR, the AR was immunoprecipitated with streptavidin only in those immunocomplexes that were both positive for biotin (Fig. 2B) and biologically active against AR transcriptional activity (EPI-053, LPY30, and LPY31).

AR [1] = target: T2, AR (Homo sapiens, UniProt P10275, T878A); set-up: method as in PMID 23722902; conditions: cited from earlier work
T2 construct: endogenous in cells; host or cells: LNCaP
T2 sequence (P10275 1-920 T878A): T1 sequence (P10275 1-920 T878A)

AR [2] = target: T2, AR; assay: AR transcriptional activity of SINT1 click chemistry probes, PSA (6.1 kb)-luciferase in LNCaP cells; assay type: cell-based; conditions: for biological activity measured using an AR-driven reporter gene construct: 40 μM LPY19, 20 μM LPY30 and LPY31
Protocol: FIGURE 2. SINT1 binds endogenous AR in living cells to inhibit transactivation of AR NTD. A, chemical structures of EPI-002, EPI-053, LPY19, LPY30, LPY31, and SINT1 (left). The effect of SINT1 probes in AR transcriptional activity was tested in LNCaP cells transiently transfected with PSA (6.1 kb)-luciferase and exposed for 1 h to 40 μM LPY19 and 20 μM LPY30 and LPY31 before induction with 1 nM […] for 48 h. Error bars represent the mean ± S.E. of n = 3 independent experiments with triplicate wells (right). B, binding of SINT1 click chemistry analogs to FL-AR in cells. LNCaP cells were exposed to modified SINT1 (LPY19, -30, and -31), EPI-053, or DMSO vehicle overnight prior to preparing whole cell lysates for click chemistry reactions. Biotinylated SINT1 or EPI probes bound to proteins were captured with streptavidin-agarose resin prior to separation by 10% SDS-PAGE and subjected to Western blotting analysis with antibodies directed to either biotin (left) or AR (middle). Red boxes highlight where AR migrates on the gel. Right, schema of experiment. […] Right, schema of experiment.

[3] = target: T3, Histidine-tagged AR AF-1 recombinant protein (Homo sapiens, UniProt P10275); assay: Binding assay of click chemistry probes to recombinant AR AF-1; conditions: cell-free, AF1-His tag, 1:10 molar ratio, 37 °C 3 h
T3 construct: made in house
T3 sequence (P10275 142-485): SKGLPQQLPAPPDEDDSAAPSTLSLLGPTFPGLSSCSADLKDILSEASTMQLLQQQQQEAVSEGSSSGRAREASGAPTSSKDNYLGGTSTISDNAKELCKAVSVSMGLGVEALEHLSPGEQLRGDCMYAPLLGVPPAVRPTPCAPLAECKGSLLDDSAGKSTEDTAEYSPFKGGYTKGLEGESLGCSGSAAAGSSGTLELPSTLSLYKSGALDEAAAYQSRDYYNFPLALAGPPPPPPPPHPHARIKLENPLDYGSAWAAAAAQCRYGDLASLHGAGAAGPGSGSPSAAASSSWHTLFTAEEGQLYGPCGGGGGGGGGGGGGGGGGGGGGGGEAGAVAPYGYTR
Protocol: Histidine-tagged AR AF-1 recombinant protein was expressed and purified as described ([5]). The binding reaction was carried out by mixing AR AF-1 protein with alkyne-containing LPY probes or DMSO at a 1:10 molar ratio and incubated in buffer containing 10 mM HEPES, pH 7.9, and 100 mM NaCl at 37 °C for 3 h. LPY probes were labeled with biotin by copper-catalyzed click chemistry reaction at 25 °C for 1 h ([5]). Samples were resolved by 10% SDS-PAGE, and Western blotting was performed to detect biotin and histidine-tagged AR AF-1 using IRDye® 680LT streptavidin (1:5000) and anti-His (1:1000) antibody, respectively.
Therefore, we next evaluated whether SINT1 binds the AF-1 region in AR NTD. Purified recombinant AF-1 protein (AF1-His tag) was incubated under cell-free conditions with LPY19, LPY30, and LPY31 prior to click chemistry to add a biotin to the LPY probe (see schema in Fig. 2C, right).

[4] = target: T4, progesterone receptor (PR)-β (Homo sapiens, UniProt P06401); assay: Steroid receptor specificity: PRE-luciferase reporter in LNCaP cells; assay type: cell-based; conditions: 10 μM compound, 10 nM 4-pregnene-3,20-dione, 48 h
T4 construct: expressed in transfected cells; host or cells: LNCaP
T4 sequence (P06401 1-933): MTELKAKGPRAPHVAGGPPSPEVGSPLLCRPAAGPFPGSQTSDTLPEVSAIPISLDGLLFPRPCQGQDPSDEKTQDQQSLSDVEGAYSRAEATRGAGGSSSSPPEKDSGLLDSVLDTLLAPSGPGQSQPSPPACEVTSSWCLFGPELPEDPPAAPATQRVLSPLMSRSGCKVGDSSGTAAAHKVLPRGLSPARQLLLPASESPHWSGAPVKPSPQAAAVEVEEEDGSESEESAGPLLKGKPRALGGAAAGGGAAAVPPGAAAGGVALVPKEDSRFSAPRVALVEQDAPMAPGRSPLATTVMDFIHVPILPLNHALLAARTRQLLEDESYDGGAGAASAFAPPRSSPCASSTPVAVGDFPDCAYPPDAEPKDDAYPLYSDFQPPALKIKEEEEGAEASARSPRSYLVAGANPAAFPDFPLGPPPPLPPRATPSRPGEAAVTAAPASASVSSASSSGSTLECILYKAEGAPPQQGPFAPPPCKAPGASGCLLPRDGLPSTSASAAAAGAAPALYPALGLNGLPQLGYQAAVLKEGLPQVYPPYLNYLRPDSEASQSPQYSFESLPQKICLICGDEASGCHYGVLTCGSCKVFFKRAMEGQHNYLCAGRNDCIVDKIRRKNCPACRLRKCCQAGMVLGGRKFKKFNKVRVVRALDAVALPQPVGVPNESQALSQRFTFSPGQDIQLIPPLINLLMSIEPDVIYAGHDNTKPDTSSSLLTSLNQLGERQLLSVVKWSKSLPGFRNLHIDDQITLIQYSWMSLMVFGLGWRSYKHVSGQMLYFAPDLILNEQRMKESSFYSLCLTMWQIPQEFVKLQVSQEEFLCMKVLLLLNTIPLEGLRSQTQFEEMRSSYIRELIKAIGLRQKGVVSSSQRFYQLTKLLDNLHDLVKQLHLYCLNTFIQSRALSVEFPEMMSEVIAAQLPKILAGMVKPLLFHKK
Protocol: LNCaP cells were transfected with the reporter plasmid PSA(6.1kb)-luciferase, PRE-luciferase, or GRE-luciferase and expression vector for progesterone receptor (PR)-β or glucocorticoid receptor (GR)-α in serum-free, phenol red-free medium using Lipofectin (Invitrogen). […] After 48 h of treatment, cells were lysed and analyzed for luciferase activities.
FIGURE 1. […] A, LNCaP cells were transfected with PSA (6.1 kb)-luciferase, PRE-luciferase, or GRE-luciferase reporters and expression vector for PRβ or GRα. […] Error bars represent mean percentage of vehicle activity ±S.E. of at least three independent experiments with triplicate wells. SINT1, 10 μM; […]; ***, p < 0.001. […]. Error bars represents mean ± S.E. of three technical replicates. […] DAPI staining indicates the location of the nucleus. Scale bars, 20 μm.

LNCaP95 cells = assay: Cell proliferation (BrdU incorporation), LNCaP95; assay type: cell-based; conditions: 48 h
Protocol: Cells were pulse-labeled with 10 μM BrdU for 2 h. Cells were fixed, and BrdU-labeled cells were identified with anti-BrdU-peroxidase (Roche Applied Science). BrdU incorporation was measured at 570 nm using a VersaMax ELISA microplate reader (Molecular Devices). At least three independent experiments with six technical replicates were analyzed, and average values are indicated.

[5] = LNCaP, PSA (6.1 kb)-luciferase, 1 nM R1881 48 h

Row | binding to endogenous FL-AR (biotin band corresponding to AR after streptavidin capture) (endogenous FL-AR) | Compound | biological activity measured using an AR-driven reporter gene construct (AR [2]; [5]) | binding of biotinylated probe to AF-1 [3] | further results
1 |  | CC(C)(c1ccc(OCC(O)CO)cc1)c1ccc(OCC(O)CCl)cc1 (stereo not drawn) [EPI-001] |  |  | binding to Tau5 by NMR spectroscopy (Tau5): binds in a pocket in Tau5
2 | a band corresponding to AR | C#CCOC[C@H](O)COc1ccc(C(C)(C)c2ccc(OC[C@H](O)CCl)cc2)cc1 [EPI-053, reference compound] |  |  | biological activity measured using an AR-driven reporter gene construct (AR [1]): had biological activity
3 | not | C#CCCC(=O)N[C@H](CC(C)C)C(=O)N1C(=O)C=C(OC)[C@@H]1CC(C)C [LPY19] | very weak activity | no binding | activity at 20 μM, AR-driven reporter (AR [2]; 20 μM): inactive; pIC50 (AR [2]; LNCaP, PSA (6.1 kb)-luciferase, 1 nM R1881 48 h, read-out: IC50, AR-driven reporter gene construct): ~4.40
4 |  | CC(O)(CS(=O)(=O)c1ccc(F)cc1)C(=O)Nc1ccc(C#N)c(C(F)(F)F)c1 (stereo not shown) [bicalutamide, reference compound] |  |  | PR transcriptional activity (PRE-luciferase) [4]: inhibited; proliferation of LNCaP95 cells (LNCaP95 cells): no effect

Row | Compound | binding to endogenous FL-AR (biotin band corresponding to AR after streptavidin capture) (endogenous FL-AR) | biological activity measured using an AR-driven reporter gene construct (AR [2]; [5]) | binding of biotinylated probe to AF-1 [3] | further results
5 | C#CCCC(=O)NC(CCC(Cl)(Cl)Cl)C(=O)N1C(=O)C=C(OC)C1CCC(Cl)(Cl)Cl (stereo not shown) [LPY30] | a band corresponding to AR | had biological activity | binding | 
